Experimental data taken from article PMC11270730, “Isolation and In Vitro Biological Evaluation of Triterpenes from Salacia grandifolia Leaves” (ACS Omega, 2024).

Tests used:
[1] = L929 cell viability, MTT assay (CC50); conditions: mouse
Protocol: (§1) The antiviral activity of isolated compounds and extracts was evaluated against the murine coronavirus MHV-3. Initially, the viability of L929 (mouse adipose fibroblasts; ATCC CCL-1) cells was assessed using the MTT (3-(4,5-dimethylthiazol-2-yl)-2,5-diphenyltetrazolium bromide (Thermo Fisher Scientific, USA) assay.[11] Cells were cultured at 37 °C and 5% CO2 in Dulbecco’s modified Eagle medium (DMEM; Cultilab, Brazil) supplemented with 5% fetal bovine serum (FBS; Cultilab, Brazil), 100 IU/mL of penicillin (Cellofarm, Brazil), 100 μg/mL of streptomycin (Merck, Germany) and 0.25 μg/mL of amphotericin B (Cultilab, Brazil). Cells were seeded in 96-well microplates (4 × 10^4 cells per well) and added 200 μL of DMEM with 1% de FBS containing the diluted compounds and extracts to be tested (100 to 1.56 μM or 200 to 3.125 μg/mL). Serial dilutions of DMSO were used as a vehicle control. Additionally, a 10% v/v inhibition control of DMSO was used. After 72 h of incubation under the same conditions, media was removed and 100 μL of MTT diluted in DMEM (0.5 mg/mL) were added to each well and incubated for 3 h. Last, media was removed, and 100 μL of DMSO were added to each well to solubilize the formazan crystals. The absorbance was read at 570 nm using a spectrophotometer (Versamax, Molecular Devices, EUA). The percentages of cell viability inhibition were calculated as the ratio between the absorbance of cells treated with the compounds relative to the vehicle control. Linear regression was used to calculate CC50 values, considering only those data for which r^2 > 0.9. The 50% cytotoxic concentration (CC50) is defined as the highest concentration of a specific compound that reduces cell viability by 50%. All conditions were tested in two independent assays in triplicate.

K-562 cells = experiment: Cytotoxic MTT assay, K-562; format: cell-based; conditions: Homo sapiens, K562; K-562, MTT, 48 h, mean ± SD of two independent experiments
Protocol: (§2) The cytotoxicity of compounds was evaluated against the K-562 (chronic myeloid leukemia, ATCC CCL-243) and THP-1 (acute monocytic leukemia, ATCC TIB-202) cell lines. […] For the cytotoxicity assessment, cells were planted in 96-well microplates (1 × 10^4 cells per well) containing RPMI 1640 medium (Roswell Park Memorial Institute, Cultilab, Campinas, SP, Brazil) supplemented with 10% FBS (Cultilab, Campinas, SP, Brazil), 100 U/mL penicillin, 100 μg/mL streptomycin, and 10 mM HEPES, pH 7.4. The cells were incubated in a humidified incubator at 37 °C with 5% CO2 until the assay was performed. […] After 48 h of incubation, 100 μL of MTT salt at a concentration of 0.5 mg/mL was added to each well. The plate was then incubated for 3 h. After the incubation period, the supernatant was removed, and 50 μL of DMSO was added to each well to solubilize the formazan crystals. The absorbance per well was measured at a wavelength of 550 nm using a microplate reader (Versamax, Molecular Devices, USA). The minimum concentration that inhibited 50% of cell viability (IC50) in the presence of the tested compounds was determined by comparing it with cells cultured without the compounds (considered 100% viable).

MHV-3 = experiment: Antiviral MTT assay against MHV-3 in L929 cells (EC50); format: cell-based, mouse hepatitis virus 3 (murine coronavirus); conditions: for EC50: Murine coronavirus, MHV-3 in L929 cells, MOI 0.1, MTT, NA: not active
Protocol: as §1
Here, the same conditions as that used for CC50 were used, with the only difference being the concentrations of the samples (up to 8-fold dilution from the CC50 values for the compounds) diluted in 100 μL and added to 100 μL of viral suspension at a multiplicity of infection (MOI) of 0.1, that is, one viral particle per 10 cells in culture. Ribavirin was used as the positive control. The EC50 value was calculated as the percentage ratio between the absorbance of infected cells treated with the compounds and cells treated only with the vehicle. Last, the selectivity index (SI) was calculated using the ratio between CC50 and EC50. All conditions were tested in two independent assays in triplicate.

THP-1 cells = experiment: Cytotoxic MTT assay, THP-1; format: cell-based; conditions: Homo sapiens; THP-1, MTT, 48 h, mean ± SD of two independent experiments
Protocol: as §2

Row | Structure (SMILES) | CC50 at 72 h [1] [µM] | IC50 (K-562 cells) [µM] | EC50 (MHV-3) [µM] | IC50 (THP-1 cells) [µM] | antiviral activity (MHV-3; MHV-3, up to 100 μM) | increase in activity compared to triterpene 1 (MHV-3; MHV-3 antiviral activity, 6 versus 1) [times]
1 | CC1C(=O)CCC2C1(C)CCC1C2(C)CCC2(C)C3CC(C)(C)CCC3(CO)CC(=O)C12C (centres unmarked) [Compound 1, 28-hydroxyfriedelane-3,15-dione] | > 100 | 259 ± 33 | 69 ± 6 | 539 ± 43 |  | 
2 | C[C@H]1C(=O)CC[C@@H]2[C@]1(C)CC[C@H]1[C@@]2(C)CC[C@@]2(C)[C@@H]3CC(C)(C)CC[C@]3(C)CC[C@]12C [Compound 2, friedelan-3-one] | > 100 |  |  |  |  | 
3 | C[C@H]1[C@@H](O)CC[C@@H]2[C@]1(C)CC[C@H]1[C@@]2(C)CC[C@@]2(C)[C@@H]3CC(C)(C)CC[C@]3(C)CC[C@]12C [Compound 3, friedelan-3β-ol] | > 100 |  |  |  |  | 
4 | C[C@H]1C(=O)CC[C@@H]2[C@]1(C)CC[C@H]1[C@@]2(C)CC[C@@]2(C)[C@@H]3CC(C)(C)CC[C@]3(C)CC(=O)[C@]12C [Compound 4, friedelane-3,15-dione] | > 100 | 593 ± 44 |  | 350 ± 43 | no antiviral activity | 
5 | C[C@H]1C(=O)CC[C@@H]2[C@]1(C)CC[C@H]1[C@@]2(C)CC[C@@]2(C)[C@@H]3CC(C)(C)CC[C@]3(C)C[C@H](O)[C@]12C [Compound 5, 15α-hydroxyfriedelan-3-one] | > 100 |  |  |  |  | 
6 | C[C@H]1C(=O)CC[C@@H]2[C@]1(C)CC[C@H]1[C@@]2(C)CC[C@@]2(C)[C@@H]3CC(C)(C)CC[C@]3(CO)CC[C@]12C [Compound 6, 28-hydroxyfriedelan-3-one] | > 100 | 318 ± 41 | 2.9 ± 0.3 | 623 ± 12 |  | 23
7 | C[C@H]1C(=O)CC[C@@H]2[C@]1(C)CC[C@H]1[C@@]2(C)CC[C@@]2(C)[C@@H]3C[C@@](C)(CO)CC[C@]3(C)CC[C@]12C [Compound 7, 30-hydroxyfriedelan-3-one] | > 100 | 361 ± 52 |  | 385 ± 21 |  | 
8 | C[C@H]1C(=O)CC[C@@H]2[C@]1(C)CC[C@H]1[C@@]2(C)CC[C@@]2(C)[C@@H]3C[C@](C)(CO)CC[C@]3(C)CC[C@]12C [Compound 8, 29-hydroxyfriedelan-3-one] | > 100 |  |  |  |  | 
9 | Nc1ccn([C@@H]2O[C@H](CO)[C@@H](O)[C@@H]2O)c(=O)n1 [cytarabine, reference compound] |  |  |  | 41 ± 8 |  | 
10 | NC(=O)c1ncn([C@@H]2O[C@H](CO)[C@@H](O)[C@H]2O)n1 [ribavirin, reference compound] | > 100 |  | < 10 |  |  | 
